Literature values, collected in patent US20080171032A1, “DIETARY SUPPLEMENT COMPOSITION AND METHOD OF USE FOR THE TREATMENT AND PREVENTION OF OXIDATIVE STRESS” (priority 2007, published 2008).

Key:
scleroderma = details: about 12 grams daily
dermatomyositis = details: two dermatomyositis patients, 15 to 20 grams daily
[1] = system: advanced glycation end-products (AGEs); details: 600 mg/day prior to blood draw
[2] = system: serum lipid oxidation products; details: human, tocotrienol supplementation at 40 mg/day, versus placebo

CC1=C(/C=C/C(C)=C/C=C/C(C)=C/C=C/C=C(C)/C=C/C=C(C)/C=C/C2=C(C)C(=O)[C@@H](O)CC2(C)C)C(C)(C)C[C@H](O)C1=O [Astaxanthin]
protection against oxygen-induced mitochondrial membrane damage (mitochondrial membranes): protection against oxygen-induced mitochondrial membrane damage

Nc1ccc(C(=O)O)cc1 [PABA, 4-aminobenzoic acid]
solubility in water: slight

Nc1ccc(C(=O)[O-])cc1.[K+] [POTABA, potassium para-aminobenzoate]
patients with mild, moderate or marked skin softening (scleroderma; 224 scleroderma patients): Ninety
adverse events (scleroderma; scleroderma patients): no significant adverse events were reported
clinical improvement (dermatomyositis): Clinical improvement was noted

C/C(=C(\CCOP(=O)(O)O)SC(=O)c1ccccc1)N(C=O)Cc1cnc(C)nc1N [benfotiamine]
AGE formation in the cells of test subjects [1]: significant decrease
glycoxidation in the cells of test subjects [1]: significant decrease

NCCC(=O)N[C@@H](Cc1cnc[nH]1)C(=O)O [carnosine]
effect on cells approaching senescence (human fibroblasts; human fibroblasts approaching senescence supplemented with carnosine): markedly rejuvenated and their lifespan extended
onset of cell senescence (human fibroblasts; human fibroblasts exposed to 50 mM carnosine): reduction in onset of cell senescence

tocotrienol
lowering of serum lipid oxidation products [2]: more effective in lowering serum lipid oxidation products than placebo
